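1) Cells in 96-well plates. 2) Compound, 48 h, 5 concentrations. 3) Linear interpolation between surrounding doses. 4) Unreached endpoint = highest concentration. GI50: concentration for 50% inhibition of growth. Definition used: TGI = concentration required for complete inhibition of growth.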 Where a SMILES comes first, the peptide text is derived from it. The star is where a group is joined. Palmitoyl = CCCCCCCCCCCCCCCC(=O)*
Experiments:
Assay in all cases: NCI anticancer screen, dose series, 48 h
A549 NSCLC = tested on: A549 NSCLC
BT-549 breast = tested on: BT-549 breast
CAKI-1 renal = tested on: CAKI-1 renal
COLO 205 colon = tested on: COLO 205 colon
HS 578T breast = tested on: HS 578T breast
LOX IMVI melanoma = tested on: LOX IMVI melanoma
NCI-H522 lung = tested on: NCI-H522 lung
SF-295 CNS = tested on: SF-295 CNS
UACC-257 melanoma = tested on: UACC-257 melanoma
HCC-2998 colon = tested on: HCC-2998 colon

| SMILES | TGI (A549 NSCLC) [µM] | TGI (BT-549 breast) [µM] | TGI (CAKI-1 renal) [µM] | TGI (COLO 205 colon) [µM] | TGI (HS 578T breast) [µM] | TGI (LOX IMVI melanoma) [µM] | TGI (NCI-H522 lung) [µM] | TGI (SF-295 CNS) [µM] | TGI (UACC-257 melanoma) [µM] | TGI (HCC-2998 colon) [µM] | GI50 (A549 NSCLC) [µM] | GI50 (BT-549 breast) [µM] | GI50 (CAKI-1 renal) [µM] | GI50 (COLO 205 colon) [µM] | GI50 (HCC-2998 colon) [µM] | GI50 (HS 578T breast) [µM] | GI50 (NCI-H522 lung) [µM] | GI50 (SF-295 CNS) [µM] | GI50 (UACC-257 melanoma) [µM] |
| --- | --- | --- | --- | --- | --- | --- | --- | --- | --- | --- | --- | --- | --- | --- | --- | --- | --- | --- | --- |
| CC1(C)C=CC(=O)C(O)C(C)(C)C1=O (stereo not drawn) | > 100 | > 100 | > 100 | > 100 | > 100 | > 100 | 89.4 | > 100 | > 100 |  |  |  |  |  |  |  |  |  |  |
| CSc1csc(-c2ccc(-c3ccc(-c4cc(SC)cs4)s3)s2)c1 | > 100 | > 100 |  | > 100 | > 100 | > 100 |  | > 100 | > 100 | > 100 |  |  |  |  |  |  |  |  |  |
| CN(C)Cc1cc(C(=O)/C=C/c2ccc([N+](=O)[O-])cc2)cc(CN(C)C)c1O | 89 | 37.1 |  | 4.67 | 60.3 | 5.5 | 20.1 | 38.9 | 33.6 | 32.5 |  |  |  |  |  |  |  |  |  |
| COc1ccc(-c2nc3ccccc3c(=S)n2OC(C)=O)cc1 | > 25 | > 25 | > 25 | > 25 | > 25 | > 25 |  | > 25 | > 25 | > 25 |  |  |  |  |  |  |  |  |  |
| Cc1cc(OP2(=O)NCc3ncccc3O2)ccc1Cl (stereo not drawn) | > 100 | > 100 | > 100 | > 100 |  | > 100 |  | > 100 | > 100 | > 100 |  |  |  |  |  |  |  |  |  |
| Cc1ccsc1/C=N/Nc1cnccn1 | > 100 | > 100 | > 100 | > 100 | > 100 | > 100 |  | > 100 | > 100 | > 100 |  |  |  |  |  |  |  |  |  |
| CCCCCCCCCCCCCCCC(=O)N1CCCC1C(=O)NCC(=O)NC(Cc1ccccc1)C(=O)N1CCCC1C(=O)NC(CO)C(=O)NC(Cc1ccc(O)cc1)C(=O)NC(CCCCN)C(=O)NC(CC(C)C)C(=O)NC(CCCN=C(N)N)C(=O)N1CCCC1C(=O)NCC(N)=O (stereo not drawn) (Palmitoyl-PGFPSYKLRPG-NH2; configuration not given here) | 35.4 | 43.2 | 50.6 | 33.3 | 74.5 |  | 60.3 | 75.9 | 31 | 24.1 | 17.5 | 20.8 | 20.9 | 10.3 | 10.4 | 22.2 | 25.1 | 26.5 | 14.6 |
| Cc1cc(C)nc(NC(=S)Nc2ccc([N+](=O)[O-])cc2)c1 |  | > 100 | > 100 | > 100 | > 100 | > 100 |  |  | > 100 | > 100 |  |  |  |  |  |  |  |  |  |
| CN1Cc2c(nc(-c3ccccc3)c[n+]2[O-])N(C)C1 | > 100 |  | > 100 | > 100 |  | > 100 | > 100 | > 100 | > 100 | > 100 |  |  |  |  |  |  |  |  |  |
| O=C1NC(O)CCN1C1OC(CO)C(O)C1O (stereo not drawn) | > 250 |  | > 250 | > 250 |  | > 250 | 247 | > 250 | > 250 | > 250 |  |  |  |  |  |  |  |  |  |
| CC(C(=O)COCc1ccccc1)P1(=O)OC(C)(C)CN1C(C)(C)C (stereo not drawn) | > 100 |  | > 100 | > 100 | > 100 | > 100 | > 100 | > 100 | > 100 | > 100 |  |  |  |  |  |  |  |  |  |
| O=C1C(=Nc2ccc(Nc3ccccc3)cc2)Oc2ccccc21 | 10.7 |  | 7.58 | 3.01 |  | 4.4 | 4.3 | 12.1 | 4.56 | 23.4 |  |  |  |  |  |  |  |  |  |
| O=C1c2cccc3cccc(c23)C(=O)N1CCCNCCCCNCCCNCCCN1C(=O)c2cccc3cccc(c23)C1=O | 1.39 | 3.3 | 17.3 |  | 2.11 |  |  | 22.7 | 3.06 | 1.86 |  |  |  |  |  |  |  |  |  |
| C=CC1(C)CC(=O)C2(O)C(C)(O1)C(OC(C)=O)C(O)C1C(C)(C)CCC(O)C12C (stereo not drawn) | > 150 |  | 58.8 | > 122 |  | > 150 | > 150 | > 150 | > 150 | > 150 |  |  | > 55.2 |  |  |  |  |  |  |
| Nc1ncc2c(n1)-c1ccccc1OC2N1CCCC1 (stereo not drawn) | > 100 |  | > 100 | > 100 | > 100 | > 100 | > 100 | > 100 | > 100 |  |  |  |  |  |  |  |  |  |  |
| COc1ccc(CC(N)=O)cc1OC | > 1250 |  | > 575 | > 1250 |  | > 1250 | > 1250 | > 1250 | > 580 | > 1250 |  |  |  |  |  |  |  |  |  |
| C[C@@H]1CC[C@H]2[C@H]1[C@H]1[C@@H](CC[C@]2(C)N=C=S)C1(C)C |  | 39.1 | 92.4 | 33.3 | > 100 | > 100 |  | 46.9 | 67.4 | 83.4 |  |  |  |  |  |  |  |  |  |
| COc1cc(C2c3cc4c(cc3[C@@H](Nc3ccccc3)C3COC(=O)[C@H]23)OCO4)cc(OC)c1O (stereo partly drawn) | 1.82 |  | 1.68 | 5.66 |  | 3.38 | 3.7 | 3.79 | 4.27 | 3.35 |  |  |  |  |  |  |  |  |  |
| N#CC(c1ccccc1)N(CCOCCOCCN(C(=O)c1ccccc1)C(C#N)c1ccccc1)C(=O)c1ccccc1 (stereo not drawn) | > 100 | > 100 | > 100 | > 100 | > 100 | > 100 |  | > 100 | > 100 | > 100 |  |  |  |  |  |  |  |  |  |
| CN1CCN(Cc2cc3c(nn2)-c2ccccc2C3=O)CC1 | > 100 | > 100 | > 100 | 34.3 | > 100 |  | 64.3 | > 100 | 37.1 |  |  |  |  |  |  |  |  |  |  |
| CC(C)C1=CC23CCC4C(C)(C(=O)O)CCCC4(C)C2CC1C1C(=O)N(CCCCCCN2C(=O)C4C5CC6C7(C)CCCC(C)(C(=O)O)C7CCC6(C=C5C(C)C)C4C2=O)C(=O)C13 (stereo not drawn) | 45.3 |  |  |  | 34.9 |  | 26.6 |  |  | 27.1 |  |  |  |  |  |  |  |  |  |
| CCOC(=O)/C=C1/C(CCCOCc2ccccc2)C2CCCC23CC2(CCN13)OCCO2 (stereo not drawn) | 63.9 |  |  | 34.2 |  | 37.9 | 31.3 | > 100 | 53.9 | > 100 |  |  |  |  |  |  |  |  |  |
| O=C(NN1C(=O)CS(=O)(=O)C1c1ccc(C(F)(F)F)cc1)c1ccncc1 (stereo not drawn) | > 100 |  | > 100 | > 100 |  | > 100 | > 100 | > 100 | > 100 | > 100 |  |  |  |  |  |  |  |  |  |
| OCCCc1ccc2c(c1)[C@H](CO)[C@@H](c1ccc(O)cc1)O2 | > 100 | 47.8 |  | > 100 | 38.6 | > 100 | > 100 | > 100 | > 100 | 37.3 |  |  |  |  |  |  |  |  |  |
